The test system of the first test is GUMC-403. As to the kind of experiment: viability at highest tested concentration (max response) relative to DMSO (% of DMSO control); higher = less cytotoxic. The conditions noted are these: library / dose series: MIPE library, 11-point 1:3 dilution; top concentration 23 µM; 48 h. A digest of the protocol: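 This value is viability at the highest tested concentration relative to vehicle control. GUMC-403 papilloma cells from a patient, grown by conditional reprogramming, were plated at 700/well in 1536-well plates and given 23 nL of compound by pin tool for 48 h. CellTiter-Glo luminescence on a ViewLux was normalised with vehicle wells at 100% and empty wells at 0%.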
Compound `N=C1N[C@H]2[C@H](CS[C@H]2CCCCC(=O)O)N1` yielded a viability of 134.

Staying with this test, now noted: library / dose series: MIPE library, 11-point 1:3 dilution; top concentration 46.1 µM; 48 h.
For the compound `CCCN[C@H]1CCc2nc(N)sc2C1`, the viability was 142. Still for that read-out and setting: the same measure for `C=CC(=O)Nc1cccc(Sc2nc(Nc3ccc(N4CCN(C)CC4)cc3)ncc2Cl)c1`: 70.3; for `C#Cc1cccc(Nc2ncnc3cc(OCCOC)c(OCCOC)cc23)c1`: 47.6. As for `COc1cc(-c2nn(C3CCC(N4CCN(C(C)=O)CC4)CC3)c3ncnc(N)c23)ccc1NC(=O)c1cc2ccccc2n1C` (stereo not drawn), the viability is 78.2. For `N#Cc1c(C2CCNCC2)cc(-c2c(O)cccc2OCC2CC2)nc1N`, the viability was determined as 103. In turn, `CCc1nc(-c2cccc(C)c2)c(-c2ccnc(NC(=O)c3ccccc3)c2)s1` yielded a viability of 108. For `N#CC(c1ccnc(NCCc2cccnc2)n1)c1nc2ccccc2s1` (stereo not drawn), the viability was found to be 108.

The compound `CCC(C)CCCCC(=O)N[C@@H](CCN)C(=O)NC(C(=O)N[C@H](CCN)C(=O)N[C@@H]1CCNC(=O)C([C@@H](C)O)NC(=O)[C@@H](CCN)NC(=O)[C@@H](CCN)NC(=O)[C@@H](CC(C)C)NC(=O)[C@H](Cc2ccccc2)NC(=O)[C@H](CCN)NC1=O)[C@@H](C)O` (stereo partly drawn) came in with a viability of 126. On to `C[S+](=O)([O-])c1ccc(-c2cnc(N)c(C(=O)Nc3ccccc3)n2)cc1`, for which the viability worked out at 132. `CCN1CCCC1CNC(=O)c1cc(S(=O)(=O)CC)c(N)cc1OC` (stereo not drawn): the viability came out at 119.

Turning to `NC1(Cc2ccc(Cl)cc2)CCN(c2ncnc3[nH]ccc23)CC1`, the viability turned out to be 62.8. For `C[C@@H](O)[C@@H]1NC(=O)[C@H](CCCCN)NC(=O)[C@@H](Cc2c[nH]c3ccccc23)NC(=O)[C@H](Cc2ccccc2)NC(=O)[C@@H](NC(=O)[C@H](N)Cc2ccccc2)CSSC[C@@H](C(=O)N[C@H](CO)[C@@H](C)O)NC1=O`, the viability stood at 89.7. Still for that read-out and setting: the same measure for `COC1=CC(=CC=C1)C2=CC=C(NC(=O)/C3=C(/CCC3)C(O)=O)C(=C2)F`: 99.8. For `Clc1ccccc1CN1CCc2sccc2C1`, the viability is 141. Regarding `CC(C)c1cnn2c(NCc3ccccc3)cc(NCCCCCCN)nc12`, the viability was determined as 72.8. The same measure, in the same setting: for `CC1(C)SCCN([S+](=O)([O-])c2ccc(OCC#CCO)cc2)[C@H]1C(=O)NO` the value was 103; for `CN(C)C/C=C/C(=O)Nc1cc2c(Nc3ccc(F)c(Cl)c3)ncnc2cc1O[C@H]1CCOC1`, 41.7. Same read-out and setting: the same measure for `C[C@H](c1ccc(F)cc1CCCC(=O)O)N(c1cc(F)ccc1F)[S+](=O)([O-])c1ccc(Cl)cc1`: 93.9; for `OC[C@H]1OC(O)C[C@@H](O)[C@@H]1O` (stereo partly drawn): 126. On the same count and under the same terms, the same measure for `O=C(Oc1ccc([N+](=O)[O-])cc1)N1CCC(C(O)(c2ccc3c(c2)OCO3)c2ccc3c(c2)OCO3)CC1`: 105.

`CN1CCCC(CC1)N2\N=C(CC3=CC=C(Cl)C=C3)/C4=C(C=CC=C4)C2=O` (stereo not drawn) had a viability of 78.8. Same read-out and setting: the same measure for `COc1cc(OC)c(OC)cc1C=O`: 107; for `CCC(C)(Oc1ccc(C2(c3ccc(OC(C)(CC)C(=O)O)cc3)CCCCC2)cc1)C(=O)O` (stereo not drawn): 131; for `CN(C)c1nc(N(C)C)nc(N(C)C)n1`: 95.4. For `O=C1Nc2ccc(Cl)cc2C(C#CC2CC2)(C(F)(F)F)O1` (stereo not drawn), the viability worked out at 95.5. Still for that read-out and setting: for `CCOC(=O)Nc1ccc(NCc2ccc(F)cc2)nc1N` the value was 102.

For the compound `Cc1cc(Nc2ncnc3ccc(-c4ccc(CNCC[S+](C)(=O)[O-])o4)cc23)ccc1Oc1ccn2ncnc2c1`, the viability is 99.8. On to `CC1=CC=CC=C1N2\C(=N/C3=C(C(=CC=C3)C)C2=O)C[N]4C=NC5=C4N=CN=C5N`, for which the viability is 24.1.

With `CN1CCC(CNc2ccc3ncc(-c4cccc(OC(F)(F)F)c4)n3n2)CC1`, the viability amounted to 52.5. `COc1cc(C)c(/C=C/C(C)=C/C=C/C(C)=C/C(=O)O)c(C)c1C` displayed a viability of 101. In turn, `CC[C@H]1/C=C\C=C/C[C@@H](C)[C@H](O)[C@@](C)(O)C(=O)[C@@H](C)[C@H](O)[C@@H](C)C(=O)[C@@H](C)[C@H](O)[C@@H](C)/C=C/C(=O)O[C@@H]2[C@H](C)[C@H](CC1)O[C@]1(CC[C@H](C)[C@H](C[C@@H](C)O)O1)[C@H]2C` gave a viability of 146. On the same count and under the same terms, the same measure for `COC(=O)N[C@H](C(=O)N[C@@H](Cc1ccccc1)[C@@H](O)CN(Cc1ccc(-c2ccccn2)cc1)NC(=O)[C@@H](NC(=O)OC)C(C)(C)C)C(C)(C)C`: 112; for `CNC[C@H](O)c1cccc(O)c1`: 139; for `CC(=O)N1CCN(c2ccc(OCc3nn(C)c(C)c3-c3cccc4c(CCCOc5cc(C)c(Cl)c(C)c5)c(C(=O)O)n(Cc5cccnc5)c34)cc2)CC1`: 137. Compound `CC(=O)N[C@@H]1[C@@H](NC(N)=N)\C=C(/O[C@H]1[C@H](O)[C@H](O)CO)C(O)=O` displayed a viability of 129. `COC1=CC=C2C(=CC=NC2=C1)OC3=CC=C(NC(=O)\C4=C(C)\N(CC(C)(C)O)N(C4=O)C5=CC=CC=C5)C=C3F` registered a viability of 80.3.

The compound `Cc1c(C(=O)Nc2cccc(C(F)(F)F)c2)cc(-c2ccccc2)n1CCCN1CCOCC1` had a viability of 98.9. As for `Cc1ccccc1C(C(=O)NC1CCCCC1)N(C(=O)Cn1ccnc1C)c1cccc(F)c1` (stereo not drawn), the viability stood at 120. Still for that read-out and setting: the same measure for `CNC(=O)c1ccc(N2C(=S)N(c3ccc(C#N)c(C(F)(F)F)c3)C(=O)C23CCC3)cc1F`: 81.8; for `CCCN1CCO[C@@H]2c3cc(O)ccc3OC[C@H]21`: 102; for `CCC1(C)CC(=O)NC1=O` (stereo not drawn): 94.5. Still for that read-out and setting: the same measure for `CN1C[C@H]2c3ccccc3Oc3ccc(Cl)cc3[C@@H]2C1`: 91.4. On to `OCCN1C[C@H](O)[C@@H](O)[C@H](O)[C@H]1CO`, for which the viability was 151.

Turning to `CC(C)OC1=CC=C2C(=C1)O\C=C(/C2=O)C3=CC=CC=C3`, the viability was found to be 111.

Turning to `O=C(NCc1ccccc1)c1csc(Nc2ccncn2)n1`, the viability was found to be 110. Take `CCC(=O)O[C@@]1([C@H](C)C[C@H]2[C@@H]3C[C@H](F)\C4=C\C(=O)\C=C/[C@]4(C)[C@@]3(F)[C@@H](O)C[C@]12C)C(=O)SCF`: the viability worked out at 162. Turning to `O=C(O)C1(Cc2cccc(Nc3nccs3)n2)CCC(Oc2cccc(Cl)c2F)CC1` (stereo not drawn), the viability was found to be 115. On the same count and under the same terms, the same measure for `CC(C)(O)/C=C\C(=O)[C@](C)(O)[C@H]1[C@H](O)C[C@]2(C)[C@@H]3CC=C4[C@@H](C=C(O)C(=O)C4(C)C)[C@]3(C)C(=O)C[C@@]12C`: 83.7; for `O=C(O)C(=O)Nc1cccc(-c2nnn[nH]2)c1`: 120. On the same count and under the same terms, the same measure for `O=[S+]([O-])(/N=C/c1c(O)ccc2ccccc12)c1cccs1`: 87.9; for `O=C(O)Cn1nnc(-c2cc(N3CCC(Oc4cc(F)ccc4Br)CC3)no2)n1`: 128; for `C=CCc1ccc(O)c(-c2ccc(O)c(CC=C)c2)c1`: 80.6. Compound `CCOCC(O)COc1ccc(NC(=O)CC[S+](C)C)cc1` (stereo not drawn) registered a viability of 111. On to `COc1cc(OC2CCN(C)CC2)ccc1Nc1ncc2c(n1)n(C1CCCC1)c(=O)n2C`, for which the viability was found to be 60.4. The same measure, in the same setting: for `OCCN(CCO)c1nc(N2CCCCC2)c2nc(N(CCO)CCO)nc(N3CCCCC3)c2n1` the value was 77; for `N#Cc1ccc(C(c2ccc(C#N)cc2)n2cncn2)cc1`, 95.7. For `COc1ccc(C(=O)c2c(C)n(CCN3CCOCC3)c3ccccc23)cc1`, the viability turned out to be 122. Still for that read-out and setting: the same measure for `Cc1ccccc1C(C(=O)NC1CCCCC1)N(C(=O)CNc1ccc(C#N)cc1)c1cccc(F)c1` (stereo not drawn): 108. `C[C@]\12CCC(=O)\C=C1[C@@H]3C[C@@H]3[C@@H]4[C@@H]2CC[C@@]5(C)[C@H]4[C@@H]6C[C@@H]6[C@@]57CCC(=O)O7` displayed a viability of 89.8.

Turning to `N[C@@H](Cc1ccc(N(CCCl)CCCl)cc1)C(=O)O`, the viability is 143. The compound `Cc1ncc([N+](=O)[O-])n1CCO` showed a viability of 106. The same measure, in the same setting: for `CNc1nc(Nc2ccc(C(=O)N3CCOCC3)cc2OC)ncc1Cl` the value was 108; for `Cc1cccc(CN2CCN(C(c3ccccc3)c3ccc(Cl)cc3)CC2)c1` (stereo not drawn), 87.2; for `CNC1CCC(N(Cc2cccc(-c3ccncc3)c2)C(=O)c2sc3c(F)ccc(F)c3c2Cl)CC1` (stereo not drawn), 75.5. As for `CC1(C)[C@@H](O)CC[C@@]2(C)[C@H]1CC[C@]3(C)[C@@H]2C(=O)\C=C/4[C@@H]5C[C@](C)(CC[C@]5(C)CC[C@@]34C)C(O)=O`, the viability came to 117.

On to `CC(C)c1nc(CN(C)C(=O)N[C@H](C(=O)N[C@@H](Cc2ccccc2)C[C@H](O)[C@H](Cc2ccccc2)NC(=O)OCc2cncs2)C(C)C)cs1`, for which the viability is 99.7. In turn, `N#C/C(=C1/Nc2ccccc2S1)c1ccnc(OCc2ccc(CN3CCOCC3)cc2)n1` returned a viability of 91.3. Turning to `CCCC[S+](=N)([O-])CCC(N)C(=O)O` (stereo not drawn), the viability stood at 111. Still for that read-out and setting: the same measure for `CCCCNc1cc(C(=O)O)cc([S+](N)(=O)[O-])c1Oc1ccccc1`: 138. For `NC1(c2ccc(-c3nc4ccn5c(=O)[nH]nc5c4cc3-c3ccccc3)cc2)CCC1`, the viability came to 90.4. For the compound `C=CC(=O)Nc1cc2c(Nc3ccc(F)c(Cl)c3)ncnc2cc1OCCCN1CCOCC1`, the viability was 81.6.

Still in this test, the particulars now being: library / dose series: MIPE library, 11-point 1:3 dilution; top concentration 92.2 µM; 48 h.
As for `Cc1cc(Nc2cc(N3CCN(C)CC3)nc(/C=C/c3ccccc3)n2)n[nH]1`, the viability is 54.1.
